Results: patent publication US20100209378A1, “Dimethylcyclohexyl Derivatives as Malodor Neutralizers” (GIVAUDAN SA, priority 2007, published 2010)

Legend:
[1] = Headspace GC/MS malodor reduction, hexyl amine; conditions: 0.5 g test compound, 10 ul malodor in 1 l headspace jar, 60 minutes contact at 25° C.
Protocol: (§1) Amines are key contributors to many household malodors. Sulfides are present in odors associated with bad breath. In order to assess the malodor reduction efficacy of the compounds of the present invention, they were evaluated for their ability to reduce hexyl amine malodor and allyl disulphide by the following method.
(§2) A one liter glass headspace collection jar had placed inside it a 25 ml stoppered glass container which contained 0.5 g of a test compound. 10 ul of hexyl amine or allyl disulphide mercaptan as a representative malodor was injected into the headspace jar. This was left for 15 minutes at 25° C. to equilibrate. One ml/minute of the headspace was drawn for one minute through a Tenax™ headspace trap. The Tenax™ trap was removed and thermally desorbed into an Agilent 6890 GC/MS to analyze the quantity of hexyl amine and allyl disulphide mercaptan respectively in the headspace to determine the initial concentration of the hexyl amine malodor/ally disulphide mercaptan. The glass stopper was removed from the container and the test component and the malodor were left in contact for 60 minutes at 25° C. One ml/minute of the headspace was drawn for one minute through a Tenax™ trap and the amount of malodor remaining was determined as above.

[2] = Sensory panel (LMS) reduction of synthetic axilla malodor on cotton pads; conditions: 100 ul of 1% solution of test compound on pad with 100 ul 0.1% axilla malodor; panel of 20, LMS
Protocol: A 0.1% ethanol solution of synthetic axilla malodor was prepared and a 100 ul aliquot was placed onto cotton pads. 1% solutions of test compounds were prepared and 100 ul dosed on to the axilla treated pads. One pad was left untreated as the control. Each pad was allowed to dry for 15 minutes. The test cotton pads were randomized, and a panel of 20 was used. Each panelist was asked to check a box that represented the strength of the axilla malodor using a Labeled Magnitude Scale (LMS) (Barry G. Green, Pamela Dalton, Beverly Cowart, Greg Shaffer, Krystyna Rankin and Jennifer Higgins. Evaluating the Labeled Magnitude Scale for Measuring Sensations of Taste and Smell. Chemical Senses. Vol. 21, pp 323-334, 1996).
The % reduction of malodor was calculated by: […]
Composition 1 was compared with composition 2 for malodor reduction efficiency using the method described in Example 6.

[3] = Headspace GC/MS malodor reduction, onion oil; conditions: method of Example 4; diallyl sulfide and diallyl disulfide measured as standard
Protocol: as §2
(§3) Evaluation of the malodor reduction potential of the compounds of the present invention on malodors of natural garlic oil and onion oil using the methodology described in Example 4 is shown in Table 2. As standard for determining the reduction of onion oil odor the amount of diallyl sulfide and diallyl disulfide were measured, and propyl methyl disulfide and dipropyl disulfide for determining the reduction of garlic oil odor.

[4] = Headspace GC/MS malodor reduction, allyl disulphide; conditions: 0.5 g test compound, 10 ul malodor in 1 l headspace jar, 60 minutes contact at 25° C.
Protocol: as §1, §2

[5] = Headspace GC/MS malodor reduction, garlic oil; conditions: method of Example 4; propyl methyl disulfide and dipropyl disulfide measured as standard
Protocol: as §2, §3

SMILES	% Reduction of hexyl amine [1]	% Reduction of Axilla [2]	% Reduction of onion oil odor [3]	% Reduction of allyl disulphide [4]	% Reduction of garlic oil odor [5]
CC(O)C(=O)OC(C)C1CCCC(C)(C)C1 (stereo not shown) [Compound A, 1-(3,3-dimethylcyclohexyl)ethyl 2-hydroxypropanoate]	80.3%	77.2%	87.2%	81.5%	87.7%
CC(OCC(=O)O)C1CCCC(C)(C)C1 (stereo not shown) [Compound B, 2-(1-(3,3-dimethylcyclohexyl)ethoxy)acetic acid]	91.4%	67.6%	66.3%	74.6%	73.2%
CC(OCCO)C1CCCC(C)(C)C1 (stereo not shown) [Compound C, 2-(1-(3,3-dimethylcyclohexyl)ethoxy)ethanol]	71.2%	61.4%	78.4%	70.2%	67.4%
CC(C)=CCCC(C)CCOC(=O)C=C(C)C (stereo not shown) [citronellyl methylcrotonate, reference compound]		53.1%			
